Experimental data taken from ChEMBL document CHEMBL1150683, “Two new carbazole alkaloids from Murraya koenigii” (J Nat Prod, 2003).

Biological target: Cathepsin B (Homo sapiens, UniProt P07858)
Assay: Inhibition of cathepsin B mediated osteoporotic activity

IC50: 2110 nM
Structure (SMILES): COc1cc2c([nH]c3c4c(c(C)cc32)OC(C)(C)C=C4)c(-c2c(O)c(OC)cc3c2[nH]c2c4c(c(C)cc23)OC(C)(C)C=C4)c1O
